# Assay results published in patent US10799503B2, “Methods for the treatment of cancer” (IGNYTA, INC., priority 2016, dated 2020).
# What was measured:
# [1] = Phase I and Phase Ib clinical studies (Example 5, data cut-off Aug. 1, 2017): treatment-related adverse events and disposition; type: in vivo, human
# From the text: The most common (>10%) treatment related AEs […].
# [2] = Phase I and Phase Ib clinical studies (Example 4): treatment-related adverse events and disposition; type: in vivo, human
# Method: Phase I and Phase Ib clinical studies were performed in which 92 total subjects were enrolled, 91 of which were treated, and of which 35 in the Phase Ib portion were determined to be molecularly evaluable and were treated.
# Table 4 provides a summary of the most common, treatment-related adverse events (AEs) in all patients that were treated (n=91), expressed as a percentage of the 91 patients.
smiles,measurement,setting,value
"COc1cc2ncnc(Oc3cccc(NC(=O)Nc4cc(C(C)(C)C(F)(F)F)on4)c3)c2cc1OC [N-[3-[(6,7-dimethoxy-4-quinazolinyl)oxy]phenyl]-N′-[5-(2,2,2-trifluoro-1,1-dimethylethyl)-3-isoxazolyl]-urea]",Number of patients that discontinued due to death,[1]; Phase 1 (N = 55),3 n
same,Number of patients that discontinued due to death,[1]; Phase 1b Other (N = 50),1 n
same,Number of patients that discontinued due to death,[1]; Phase 1b RET+ (N = 47),0 n
same,Number of patients that discontinued due to death,[1]; Total Subjects (N = 152),4 n
same,Blood Bilirubin Increased ≤G2,"[1]; human, in vivo",6 (4)
same,Blood Bilirubin Increased ≥G3,"[1]; human, in vivo",1 (1)
same,Decreased Appetite ≤G2,"[1]; human, in vivo",17 (11)
same,Decreased Appetite ≥G3,"[1]; human, in vivo",0 (0)
same,Diarrhea ≤G2,"[1]; human, in vivo",28 (18)
same,Diarrhea ≥G3,"[1]; human, in vivo",6 (4)
same,Elevated Alanine Aminotransferase ≤G2,"[1]; human, in vivo",4 (3)
same,Elevated Alanine Aminotransferase ≥G3,"[1]; human, in vivo",11 (7)
same,Elevated Aspartate Aminotransferase ≤G2,"[1]; human, in vivo",9 (6)
same,Elevated Aspartate Aminotransferase ≥G3,"[1]; human, in vivo",6 (4)
same,Fatigue ≤G2,"[1]; human, in vivo",27 (18)
same,Fatigue ≥G3,"[1]; human, in vivo",5 (3)
same,Hypophosphatemia ≤G2,"[1]; human, in vivo",13 (9)
same,Hypophosphatemia ≥G3,"[1]; human, in vivo",11 (7)
same,Muscle Spasms ≤G2,"[1]; human, in vivo",19 (13)
same,Muscle Spasms ≥G3,"[1]; human, in vivo",0 (0)
same,Nausea ≤G2,"[1]; human, in vivo",21 (14)
same,Nausea ≥G3,"[1]; human, in vivo",0 (0)
same,Rash* ≤G2,"[1]; human, in vivo",37 (24)
same,Rash* ≥G3,"[1]; human, in vivo",15 (10)
same,Vomiting ≤G2,"[1]; human, in vivo",15 (10)
same,Vomiting ≥G3,"[1]; human, in vivo",0 (0)
same,number of treatment-related serious adverse events (SAEs),"[1]; human, in vivo",19
same,patients who experienced treatment-related serious adverse events (SAEs),"[1]; human, in vivo",9%
same,resolution of treatment-related serious adverse events,"[1]; human, in vivo",all except 1 resolved by dose modification or discontinuation
same,safety profile,"[1]; human, in vivo",manageable safety profile
same,severity and reversibility of the majority of treatment-related adverse events,"[1]; human, in vivo",<Grade 2 and were reversible with dose modifications
same,"toxicities commonly associated with VEGFR inhibition (hypertension, hypothyroidism, proteinuria, neurotoxicity)","[1]; human, in vivo",rarely observed
same,"Discontinued, primary reason Death, number of subjects",[2]; 92 enrolled in Phase 1/1b,4 n
same,"Discontinued, primary reason Death, percent of subjects",[2]; 92 enrolled in Phase 1/1b,(4) %
same,"ALT increase Any Grade, number of patients","[2]; human, in vivo",6
same,"ALT increase Any Grade, percentage of patients","[2]; human, in vivo",(7) %
same,"ALT increase Grade ≤ 2, number of patients","[2]; human, in vivo",1
same,"ALT increase Grade ≤ 2, percentage of patients","[2]; human, in vivo",(1) %
same,"ALT increase Grade ≥ 3, number of patients","[2]; human, in vivo",5
same,"ALT increase Grade ≥ 3, percentage of patients","[2]; human, in vivo",(6) %
same,"AST increase Any Grade, number of patients","[2]; human, in vivo",6
same,"AST increase Any Grade, percentage of patients","[2]; human, in vivo",(7) %
same,"AST increase Grade ≤ 2, percentage of patients","[2]; human, in vivo",(3) %
same,"AST increase Grade ≥ 3, number of patients","[2]; human, in vivo",3
same,"AST increase Grade ≥ 3, percentage of patients","[2]; human, in vivo",(3) %
same,"Anemia Any Grade, number of patients","[2]; human, in vivo",6
same,"Anemia Any Grade, percentage of patients","[2]; human, in vivo",(7) %
same,"Anemia Grade ≤ 2, number of patients","[2]; human, in vivo",5
same,"Anemia Grade ≤ 2, percentage of patients","[2]; human, in vivo",(6) %
same,"Anemia Grade ≥ 3, number of patients","[2]; human, in vivo",1
same,"Anemia Grade ≥ 3, percentage of patients","[2]; human, in vivo",(1) %
same,"Decreased Appetite Any Grade, number of patients","[2]; human, in vivo",9
same,"Decreased Appetite Any Grade, percentage of patients","[2]; human, in vivo",(10) %
same,"Decreased Appetite Grade ≤ 2, number of patients","[2]; human, in vivo",9
same,"Decreased Appetite Grade ≤ 2, percentage of patients","[2]; human, in vivo",(10) %
same,"Decreased Appetite Grade ≥ 3, number of patients","[2]; human, in vivo",0
same,"Diarrhea Any Grade, number of patients","[2]; human, in vivo",18
same,"Diarrhea Any Grade, percentage of patients","[2]; human, in vivo",(20) %
same,"Diarrhea Grade ≤ 2, number of patients","[2]; human, in vivo",14
same,"Diarrhea Grade ≤ 2, percentage of patients","[2]; human, in vivo",(15) %
same,"Diarrhea Grade ≥ 3, number of patients","[2]; human, in vivo",4
same,"Diarrhea Grade ≥ 3, percentage of patients","[2]; human, in vivo",(4) %
same,"Discontinued, primary reason Adverse Event, number of subjects","[2]; human, in vivo",11 n
same,"Discontinued, primary reason Adverse Event, percent of subjects","[2]; human, in vivo",(12) %
same,"Dysgeusia Any Grade, number of patients","[2]; human, in vivo",5
same,"Dysgeusia Any Grade, percentage of patients","[2]; human, in vivo",(6) %
same,"Dysgeusia Grade ≤ 2, number of patients","[2]; human, in vivo",5
same,"Dysgeusia Grade ≤ 2, percentage of patients","[2]; human, in vivo",(6) %
same,"Dysgeusia Grade ≥ 3, number of patients","[2]; human, in vivo",0
same,"Erythema Any Grade, number of patients","[2]; human, in vivo",7
same,"Erythema Any Grade, percentage of patients","[2]; human, in vivo",(8) %
same,"Erythema Grade ≤ 2, number of patients","[2]; human, in vivo",7
same,"Erythema Grade ≤ 2, percentage of patients","[2]; human, in vivo",(8) %
same,"Erythema Grade ≥ 3, number of patients","[2]; human, in vivo",0
same,"Fatigue Any Grade, number of patients","[2]; human, in vivo",20
same,"Fatigue Any Grade, percentage of patients","[2]; human, in vivo",(22) %
same,"Fatigue Grade ≤ 2, number of patients","[2]; human, in vivo",16
same,"Fatigue Grade ≤ 2, percentage of patients","[2]; human, in vivo",(18) %
same,"Fatigue Grade ≥ 3, number of patients","[2]; human, in vivo",4
same,"Fatigue Grade ≥ 3, percentage of patients","[2]; human, in vivo",(4) %
same,"Hypokalemia Any Grade, number of patients","[2]; human, in vivo",6
same,"Hypokalemia Any Grade, percentage of patients","[2]; human, in vivo",(7) %
same,"Hypokalemia Grade ≤ 2, number of patients","[2]; human, in vivo",6
same,"Hypokalemia Grade ≤ 2, percentage of patients","[2]; human, in vivo",(7) %
same,"Hypokalemia Grade ≥ 3, number of patients","[2]; human, in vivo",0
same,"Hypophosphatemia Any Grade, number of patients","[2]; human, in vivo",13
same,"Hypophosphatemia Any Grade, percentage of patients","[2]; human, in vivo",(14) %
same,"Hypophosphatemia Grade ≤ 2, number of patients","[2]; human, in vivo",7
same,"Hypophosphatemia Grade ≤ 2, percentage of patients","[2]; human, in vivo",(8) %
same,"Hypophosphatemia Grade ≥ 3, number of patients","[2]; human, in vivo",6
same,"Hypophosphatemia Grade ≥ 3, percentage of patients","[2]; human, in vivo",(7) %
same,"Muscle Spasms Any Grade, number of patients","[2]; human, in vivo",12
same,"Muscle Spasms Any Grade, percentage of patients","[2]; human, in vivo",(13) %
same,"Muscle Spasms Grade ≤ 2, number of patients","[2]; human, in vivo",12
same,"Muscle Spasms Grade ≤ 2, percentage of patients","[2]; human, in vivo",(13) %
same,"Muscle Spasms Grade ≥ 3, number of patients","[2]; human, in vivo",0
same,"Nausea Any Grade, number of patients","[2]; human, in vivo",16
same,"Nausea Any Grade, percentage of patients","[2]; human, in vivo",(18) %
same,"Nausea Grade ≤ 2, number of patients","[2]; human, in vivo",16
same,"Nausea Grade ≤ 2, percentage of patients","[2]; human, in vivo",(18) %
same,"Nausea Grade ≥ 3, number of patients","[2]; human, in vivo",0
same,"Rash* Any Grade, number of patients","[2]; human, in vivo",28
same,"Rash* Any Grade, percentage of patients","[2]; human, in vivo",(31) %
same,"Rash* Grade ≤ 2, number of patients","[2]; human, in vivo",20
same,"Rash* Grade ≤ 2, percentage of patients","[2]; human, in vivo",(22) %
same,"Rash* Grade ≥ 3, number of patients","[2]; human, in vivo",8
same,"Rash* Grade ≥ 3, percentage of patients","[2]; human, in vivo",(9) %
same,"Vomiting Any Grade, number of patients","[2]; human, in vivo",13
same,"Vomiting Any Grade, percentage of patients","[2]; human, in vivo",(14) %
same,"Vomiting Grade ≤ 2, number of patients","[2]; human, in vivo",13
same,"Vomiting Grade ≤ 2, percentage of patients","[2]; human, in vivo",(14) %
same,"Vomiting Grade ≥ 3, number of patients","[2]; human, in vivo",0
